Test [1] addresses T1, p38/MK2 interaction (Homo sapiens, UniProt Q16539). In words: TR-FRET assay with purified recombinant His-p38 and GST-MK2. It counts as binding. The conditions noted are these: side-by-side TR-FRET, 2h incubation. As to the method:
ENSG00000112062, UniProt ID: Q16539-1) was cloned into a pMCSG7 vector and transformed into Escherichia coli strain BL21(DE3). […] The resuspended cells were lysed through sonication. The lysate was centrifuged for 20 min at 70,000g at 4 °C and the clarified supernatant was passed through a gravity column containing 2 mL Ni-NTA resin pre-equilibrated with equilibration buffer. The resin was then washed with 25 column volumes of equilibration buffer supplemented with 40 mM imidazole, and the protein was eluted with equilibration buffer supplemented with 200 mM imidazole. […] The purity of the enzyme was verified by sodium dodecyl sulfate-polyacrylamide gel electrophoresis (SDS-PAGE) with Coomassie staining, aliquots flash frozen in liquid nitrogen, and stored at -80 °C.
A general note: Time-resolved FRET reads energy transfer from a long-lived donor to a nearby acceptor.

Test [2] addresses T1, p38/MK2 interaction. In words: TR-FRET ultra-high-throughput screening (uHTS), 1536-well, HEK293T lysate VF-p38α / GST-MK2. It counts as binding. Set-up: inhibition of p38/MK2 interaction, primary screen: concentration or dose not given beside the values.
Another test relates to HMC3 microglial cells. The experiment in a line: qRT-PCR of LPS-induced cytokine expression in HMC3 microglial cells. It counts as cell-based, human. The conditions noted are these: HMC3, 5 μM compound 1 h before 100 ng/mL LPS 4 h. The method, then: HMC3 cells were treated with 100 ng/mL E. coli LPS (Sigma-Aldrich, catalog no. L4005) for 4 h in DMEM media. […] Following pretreatment, iMGLs were challenged with 100 ng/mL LPS and 20 ng/mL interferon-γ (IFN-γ) for 24 h to induce an inflammatory response. At the end of the stimulation, cell lysates were collected for qPCR analysis of TNF-α […] gene expression. Total RNA isolation from cell samples was conducted using the RNeasy Plus kit (Qiagen, catalog no. 74134) according to manufacturer instructions and treated with DNase I (Invitrogen, catalog no. 18068-015). Extracted RNA was quantified using the Nanodrop One Spectrophotometer (Thermo Scientific) and then reverse-transcribed into cDNA in equal quantity (<1000 ng/reaction) with the SuperScript III System (Invitrogen, catalog no. 18080-051) following manufacturer directions. cDNA sample was treated with RNase H (Invitrogen, catalog no. 18021014) and diluted to 4 ng/μL equivalent of the starting total RNA. qPCR was performed in 96-well PCR plates (BioRad, catalog no. HSP9601) using the Realplex4Mastercycler (Eppendorf). Each reaction well combines 5 μL cDNA sample, 10 μL 2X SYBR Green Supermix (BioRad, catalog no. 1725271), 1 μL 5 μM primer mix for each target gene, and nuclease-free water up to 20 μL. […] The primer sequences used were: TNFα forward [NT], reverse [NT]-6 forward [NT], reverse [NT]-1β forward [NT], reverse [NT] Each gene was expression-normalized against the housekeeping gene GAPDH with the primer sequences: forward [NT], reverse [NT] Primers were obtained from Integrated DNA Technologies in lyophilized form. The cycler program was set to denaturation at 95 °C for 15 s, followed by annealing and extension at 60 °C for 60 s, repeated for 40 PCR cycles. Melting curve analyses were performed for each sample to ensure primer specificity. The experiment was performed in biological quadruplicates and technical quadruplicates.
For orientation: Real-time PCR tracks product formation cycle by cycle.

Test [3] has as its system human iPSC-derived microglia (iMGL). The experiment in a line: qRT-PCR of LPS/IFNγ-induced TNF-α expression in iPSC-derived microglia (iMGL). Format: cell-based. The following applies: 5 μM compound 1 h before LPS/IFN-γ 24 h.
Test [4] has as its target T2, endogenous p38/MK2 complex (Homo sapiens, UniProt Q16539).
T2 construct: endogenous in cells; host or cells: HMC3 (ATCC CRL-3304)
In words: Co-immunoprecipitation of endogenous p38/MK2 complex in HMC3 cells. The conditions noted are these: HMC3 cell lysate. Format: cell-based. The method, then:
HMC3 cells were lysed with 1% NP-40 lysis buffer, as described above. Clear cell lysate was incubated with equilibrated MK2-Trap Agarose beads (ChromoTek, catalog no. mta-20) or Binding Control Agarose Beads (Chromotek, catalog no. bab-20) and compounds or DMSO at 4 °C for 2 h. Immunoprecipitates were washed three times with 1% NP-40 lysis buffer. Samples were boiled in 1X SDS-PAGE sample buffer (BioRad, catalog no. 1610747) for 5 min before analysis by Western blotting.
Proteins in each sample were separated by SDS-PAGE at 200 V for 40 min using 12.5% acrylamide gels. Transfer to nitrocellulose membranes was completed using the Trans-Blot Turbo Transfer System (BioRad) in TBT buffer (BioRad, catalog no. 10026938). Thirty min incubation in 5% nonfat dry milk (BioRad, catalog no. 170–6404) in TBST buffer (20 mM Tris-base, 150 mM NaCl, and 0.05% Tween 20) at room temperature was used to block membranes. p38α MAPK mouse mAb (Cell Signaling Technology, catalog no. 9217) was used to blot the membrane at 4 °C overnight. […] The wash step was repeated, and the blot was imaged with a ChemiDoc imaging system (BioRad). The SuperSignal West Pico PLUS Chemiluminescent Substrate (Thermo Scientific, catalog no. 34580) was used for developing membranes. Blotting of MK2 was then started with the removal of p38α antibodies using a striping buffer (Thermal Scientific, catalog no. 46430). […]

The target in test [5] is recombinant His-tagged p38 (Homo sapiens, UniProt Q16539).
The target of test [6] is p38α. The conditions noted are these: systematic kinase profiling; reference number not given; read-out: K d for p38α; cited from earlier work.
Test [7] relates to p38α. The conditions noted are these: systematic kinase profiling; reference number not given; read-out: IC50, inhibition of p38α catalysis; cited from earlier work.

Molecules are shown by their SMILES. Entries after “also recorded” stand apart in the source; their conditions may differ.

T1 sequence (Q16539 whole entry): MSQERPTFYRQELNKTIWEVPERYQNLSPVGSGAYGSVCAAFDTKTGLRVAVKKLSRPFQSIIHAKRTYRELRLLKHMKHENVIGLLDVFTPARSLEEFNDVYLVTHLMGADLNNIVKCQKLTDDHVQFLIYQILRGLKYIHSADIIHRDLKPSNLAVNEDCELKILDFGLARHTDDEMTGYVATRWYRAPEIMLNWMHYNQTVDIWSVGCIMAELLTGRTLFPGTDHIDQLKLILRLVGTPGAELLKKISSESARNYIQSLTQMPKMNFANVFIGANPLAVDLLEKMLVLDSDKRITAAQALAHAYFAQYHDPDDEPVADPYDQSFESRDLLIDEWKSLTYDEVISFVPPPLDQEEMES
T2 sequence (Q16539 whole entry, one chain of several): as the sequence (Q16539 whole entry) above
Sequence of recombinant His-tagged p38 (Q16539 whole entry): as above

For `Cc1cn(-c2cc(NC(=O)c3ccc(C)c(Nc4nccc(-c5cccnc5)n4)c3)cc(C(F)(F)F)c2)cn1` [Nilotinib, 4-methyl-N-[3-(4-methylimidazol-1-yl)-5-(trifluoromethyl)phenyl]-3-[(4-pyridin-3-ylpyrimidin-2-yl)amino]benzamide], on p38/MK2 interaction [1], the “maximal inhibition of p38/MK2 PPI” value is on record as about 75%. For the same compound, on p38/MK2 interaction [2] (relative to DMSO control, 1536-well), the “inhibition of p38/MK2 interaction, primary screen” value is at least 50%. At p38/MK2 interaction [2] (uHTS TR-FRET signal, Emory Enriched Library), the Pct of control was 8.91 Pct of control. The “LPS-induced TNF-α, IL-6, and IL-1β expression” value with HMC3 microglial cells is “significantly (p-value <0.05) suppresses; also recorded: significantly reduced”. Besides, the “LPS/IFNγ-induced TNF-α expression” value in test [3] is reported as “suppresses; also recorded: suppression”. For the same compound, the entries for the “endogenous p38/MK2 complex formation (co-IP)” value in test [4] and in test [4] (listed as nilotinib) were “disrupts the endogenous p38/MK2 complex” and “decreased p38/MK2 complex formation”, respectively. Further, the “ΔT max (thermal stabilization)” value in test [5] is 8.22 °C. Also, the Kd on p38α [6] was 100 nM. Also, the IC50 (usually the midpoint of a concentration-inhibition curve) in the test on p38α [7] was about 2200 nM.
